From ChEMBL document CHEMBL1201862, “PubChem BioAssay data set” (2004)
Active and inactive are the calls of the source.

Key:
[1] = Vero cell cytotoxicity, cytotoxicity control for M. tuberculosis inhibitor project, purified and synthesized samples, set 3 (AID 504684); format: functional
[2] = target: Low molecular weight phosphotyrosine protein phosphatase (Homo sapiens, UniProt P24666); format: functional; conditions: read-out: IC50_Mean;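 also: Dose-response confirmation assay measuring inhibition of LMPTP enzyme activity by fluorescence intensity read-out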
[3] = target: T1, ATP-dependent translocase ABCB1 (Homo sapiens, UniProt P08183); experiment: ABCB1 efflux inhibitor potency, dose response, Jurkat-DNR cells, JC-1, flow cytometry, set 2 (AID 504569); format: functional; conditions: read-out: EC50_MICROM_;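 also: potency of pump inhibitors that raise cellular JC-1 green fluorescence up to the nicardipine level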
[4] = target: T1, ATP-dependent translocase ABCB1; experiment: ABCG2 efflux pump inhibitor potency, dose response, Ig-MXP3 cells, JC-1, flow cytometry, set 2 (AID 504566); format: functional; conditions: read-out: EC50_MICROM_;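 also: flow cytometry median green fluorescence of retained JC-1 dye; potency of efflux pump inhibition measured as rising substrate retention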
HEK293 [5] = experiment: HEK cell cytotoxicity by LDH release, dose response, cytotoxicity control for IDE activator project, fluorescence, HEK cells (AID 588440); format: functional, cell-based; conditions: Homo sapiens;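 also: cytotoxicity by LDH release measuring loss of membrane integrity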
HEK293 [6] = experiment: optical interference in Abeta FP readout, dose response, artefact control for IDE activator project, biochemical, fluorescence polarization (AID 588442); format: functional, cell-based; conditions: Homo sapiens
Insulin-degrading enzyme [7] = target: T2, Insulin-degrading enzyme (Homo sapiens, UniProt P14735); experiment: activators of recombinant IDE enzyme, dose response, counter-screen for IDE activator project, biochemical, fluorescence polarization (AID 588681)
T2 sequence (P14735 whole entry): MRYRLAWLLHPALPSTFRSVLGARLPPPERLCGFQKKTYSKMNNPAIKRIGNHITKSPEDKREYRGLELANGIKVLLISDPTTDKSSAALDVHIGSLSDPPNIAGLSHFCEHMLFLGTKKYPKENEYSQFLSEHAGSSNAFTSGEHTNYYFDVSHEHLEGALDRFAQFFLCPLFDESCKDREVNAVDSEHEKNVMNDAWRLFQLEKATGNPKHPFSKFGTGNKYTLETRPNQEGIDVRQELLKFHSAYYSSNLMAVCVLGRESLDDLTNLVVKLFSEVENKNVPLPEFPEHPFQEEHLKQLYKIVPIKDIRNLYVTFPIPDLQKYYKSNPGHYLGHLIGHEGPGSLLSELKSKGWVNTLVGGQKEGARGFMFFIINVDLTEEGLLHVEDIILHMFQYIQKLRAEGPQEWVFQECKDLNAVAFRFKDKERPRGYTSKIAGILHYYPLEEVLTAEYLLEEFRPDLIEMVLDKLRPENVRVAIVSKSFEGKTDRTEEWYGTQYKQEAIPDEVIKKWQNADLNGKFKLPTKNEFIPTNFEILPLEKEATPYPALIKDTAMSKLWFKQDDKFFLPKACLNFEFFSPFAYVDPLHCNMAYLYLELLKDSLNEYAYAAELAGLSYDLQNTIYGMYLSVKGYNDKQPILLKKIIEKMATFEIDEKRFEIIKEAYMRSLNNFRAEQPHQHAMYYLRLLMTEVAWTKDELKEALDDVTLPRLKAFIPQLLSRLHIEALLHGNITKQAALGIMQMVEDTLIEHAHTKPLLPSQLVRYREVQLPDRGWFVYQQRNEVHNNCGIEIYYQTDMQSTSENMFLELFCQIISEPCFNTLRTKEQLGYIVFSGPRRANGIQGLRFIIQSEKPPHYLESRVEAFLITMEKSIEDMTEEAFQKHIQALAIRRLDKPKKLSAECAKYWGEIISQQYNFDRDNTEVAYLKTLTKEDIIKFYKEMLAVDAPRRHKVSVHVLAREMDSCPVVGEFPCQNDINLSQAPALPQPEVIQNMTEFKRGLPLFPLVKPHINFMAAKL

Cytochrome P450 2C9 = Cytochrome P450 2C9 (Homo sapiens, UniProt P11712)
Cytochrome P450 3A4 = Cytochrome P450 3A4 (Homo sapiens, UniProt P08684);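 also: CYP3A4 tested as one member of a cytochrome P450 panel screen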
Cytochrome P450 2D6 = Cytochrome P450 2D6 (Homo sapiens, UniProt P10635);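 also: CYP2D6 member of a cytochrome P450 panel assay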
Insulin-degrading enzyme [8] = target: T2, Insulin-degrading enzyme; experiment: activators of endogenous IDE in HEK cells, dose response, cell-based, fluorescence polarization (AID 588439); format: functional
[9] = Luminescence Cell-Based Dose Confirmation HTS to Identify Inhibitors of Platelet Dense Granule Release. [Related pubchem assays: 1663 (Primary HTS), 1678 (Summary of Project)]; format: functional
[10] = target: Luciferin 4-monooxygenase (Photinus pyralis, UniProt P08659); experiment: firefly luciferase enzyme inhibitors, dose response, biochemical, luminescence (AID 1891)
[11] = ARNT/TACC3 interaction disruptors, potency, confirmation, biochemical, AlphaScreen, cherry-picked samples (AID 651703); format: functional, Homo sapiens;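 also: His-tagged ARNT PAS-B domain paired with GST-TACC3 E629A dimer coactivator fragment; potency of inhibitors that break up the complex and lower AlphaScreen signal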
Nonstructural protein 1 = Nonstructural protein 1 (Influenza A virus, UniProt Q194T2); format: functional, Influenza A virus (A/California/07/2009(H1N1))
[12] = target: T3, DNA repair protein RAD52 homolog (Homo sapiens, UniProt P43351); format: functional, biochemical
T3 sequence (P43351 whole entry): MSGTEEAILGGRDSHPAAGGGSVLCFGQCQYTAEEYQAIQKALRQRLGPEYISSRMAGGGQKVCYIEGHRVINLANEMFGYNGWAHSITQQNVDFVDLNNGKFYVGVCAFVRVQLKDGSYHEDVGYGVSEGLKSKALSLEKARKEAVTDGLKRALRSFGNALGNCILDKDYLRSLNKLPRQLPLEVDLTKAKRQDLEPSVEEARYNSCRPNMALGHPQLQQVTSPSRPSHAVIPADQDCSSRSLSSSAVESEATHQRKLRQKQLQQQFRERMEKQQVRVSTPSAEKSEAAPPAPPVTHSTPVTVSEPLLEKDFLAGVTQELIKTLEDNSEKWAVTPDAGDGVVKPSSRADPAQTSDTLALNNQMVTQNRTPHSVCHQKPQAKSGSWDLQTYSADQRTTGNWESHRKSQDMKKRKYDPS

[13] = target: T4, DNA repair and recombination protein RAD54-like (Homo sapiens, UniProt Q92698); experiment: inhibitors of human RAD54 branch migration, confirmation, biochemical, fluorescence, cherry-picked samples, dose series (AID 651657); format: functional
T4 sequence (Q92698 whole entry): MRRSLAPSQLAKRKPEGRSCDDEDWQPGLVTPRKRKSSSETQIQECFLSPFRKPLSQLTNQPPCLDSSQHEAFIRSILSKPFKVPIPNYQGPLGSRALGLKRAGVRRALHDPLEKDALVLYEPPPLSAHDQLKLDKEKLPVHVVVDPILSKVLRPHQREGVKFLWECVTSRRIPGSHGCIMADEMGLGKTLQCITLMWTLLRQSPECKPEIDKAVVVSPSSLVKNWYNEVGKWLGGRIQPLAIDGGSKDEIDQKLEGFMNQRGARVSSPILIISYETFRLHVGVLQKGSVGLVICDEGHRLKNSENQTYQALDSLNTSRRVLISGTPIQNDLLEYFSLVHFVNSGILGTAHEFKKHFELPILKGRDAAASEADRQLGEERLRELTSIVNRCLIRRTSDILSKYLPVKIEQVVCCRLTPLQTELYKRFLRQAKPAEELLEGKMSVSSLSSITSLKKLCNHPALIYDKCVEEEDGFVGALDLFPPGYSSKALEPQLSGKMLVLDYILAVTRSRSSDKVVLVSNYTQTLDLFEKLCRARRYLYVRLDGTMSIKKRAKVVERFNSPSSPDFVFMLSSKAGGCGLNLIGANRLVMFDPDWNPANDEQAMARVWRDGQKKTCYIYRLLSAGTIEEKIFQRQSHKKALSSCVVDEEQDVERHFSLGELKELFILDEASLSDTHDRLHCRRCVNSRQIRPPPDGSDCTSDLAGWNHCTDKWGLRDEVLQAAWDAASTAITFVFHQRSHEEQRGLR

[14] = target: T5, Microphthalmia-associated transcription factor (Homo sapiens, UniProt O75030); experiment: TRPM1 promoter luciferase signal decrease, dose response, MITF inhibitor project, cell-based, SK-MEL-5, cherry-picked, set 3 (AID 493073); format: functional
T5 sequence (O75030 whole entry): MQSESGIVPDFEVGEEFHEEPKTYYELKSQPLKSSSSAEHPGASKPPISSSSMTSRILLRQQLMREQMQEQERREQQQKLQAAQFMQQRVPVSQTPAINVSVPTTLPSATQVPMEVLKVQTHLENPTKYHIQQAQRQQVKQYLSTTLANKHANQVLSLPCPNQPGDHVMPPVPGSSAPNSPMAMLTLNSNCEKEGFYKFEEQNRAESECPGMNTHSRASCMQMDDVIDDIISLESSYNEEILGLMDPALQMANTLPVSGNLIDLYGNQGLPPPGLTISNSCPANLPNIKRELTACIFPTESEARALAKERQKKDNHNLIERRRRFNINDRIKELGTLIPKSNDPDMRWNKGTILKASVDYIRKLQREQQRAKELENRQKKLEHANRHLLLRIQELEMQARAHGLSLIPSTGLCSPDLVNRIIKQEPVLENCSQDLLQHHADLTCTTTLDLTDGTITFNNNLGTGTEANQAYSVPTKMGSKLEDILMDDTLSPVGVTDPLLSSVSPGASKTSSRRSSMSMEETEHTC

[15] = MDA-MB-231 cell growth inhibition, dose response, cytotoxicity control for RAD54 inhibitor project, CellTiter-Glo luminescence, cherry-pick (AID 651692); format: functional, cell-based
[16] = target: ADP-ribosylation factor GTPase-activating protein 1 (Rattus norvegicus, UniProt Q62848); experiment: Fluorescence polarization-based biochemical high throughput dose response screening assay to identify inhibitors of ADP-ribosylation factor GTPase activating protein 1 (ARFGAP1).; format: functional
[17] = A Cell Based Secondary Assay To Explore Cytotoxicity of Compounds that Sensitize Mycobacterium Tuberculosis to Beta-Lactam Antibiotics.; format: functional
[18] = target: Ras and Rab interactor 1/Tyrosine-protein kinase ABL1 (Homo sapiens, UniProt P00519+Q13671); format: functional;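 also: biochemical TR-FRET dose-response test measuring inhibition of binding between Rin1 and Abl proteins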

T1 sequence (P08183 whole entry): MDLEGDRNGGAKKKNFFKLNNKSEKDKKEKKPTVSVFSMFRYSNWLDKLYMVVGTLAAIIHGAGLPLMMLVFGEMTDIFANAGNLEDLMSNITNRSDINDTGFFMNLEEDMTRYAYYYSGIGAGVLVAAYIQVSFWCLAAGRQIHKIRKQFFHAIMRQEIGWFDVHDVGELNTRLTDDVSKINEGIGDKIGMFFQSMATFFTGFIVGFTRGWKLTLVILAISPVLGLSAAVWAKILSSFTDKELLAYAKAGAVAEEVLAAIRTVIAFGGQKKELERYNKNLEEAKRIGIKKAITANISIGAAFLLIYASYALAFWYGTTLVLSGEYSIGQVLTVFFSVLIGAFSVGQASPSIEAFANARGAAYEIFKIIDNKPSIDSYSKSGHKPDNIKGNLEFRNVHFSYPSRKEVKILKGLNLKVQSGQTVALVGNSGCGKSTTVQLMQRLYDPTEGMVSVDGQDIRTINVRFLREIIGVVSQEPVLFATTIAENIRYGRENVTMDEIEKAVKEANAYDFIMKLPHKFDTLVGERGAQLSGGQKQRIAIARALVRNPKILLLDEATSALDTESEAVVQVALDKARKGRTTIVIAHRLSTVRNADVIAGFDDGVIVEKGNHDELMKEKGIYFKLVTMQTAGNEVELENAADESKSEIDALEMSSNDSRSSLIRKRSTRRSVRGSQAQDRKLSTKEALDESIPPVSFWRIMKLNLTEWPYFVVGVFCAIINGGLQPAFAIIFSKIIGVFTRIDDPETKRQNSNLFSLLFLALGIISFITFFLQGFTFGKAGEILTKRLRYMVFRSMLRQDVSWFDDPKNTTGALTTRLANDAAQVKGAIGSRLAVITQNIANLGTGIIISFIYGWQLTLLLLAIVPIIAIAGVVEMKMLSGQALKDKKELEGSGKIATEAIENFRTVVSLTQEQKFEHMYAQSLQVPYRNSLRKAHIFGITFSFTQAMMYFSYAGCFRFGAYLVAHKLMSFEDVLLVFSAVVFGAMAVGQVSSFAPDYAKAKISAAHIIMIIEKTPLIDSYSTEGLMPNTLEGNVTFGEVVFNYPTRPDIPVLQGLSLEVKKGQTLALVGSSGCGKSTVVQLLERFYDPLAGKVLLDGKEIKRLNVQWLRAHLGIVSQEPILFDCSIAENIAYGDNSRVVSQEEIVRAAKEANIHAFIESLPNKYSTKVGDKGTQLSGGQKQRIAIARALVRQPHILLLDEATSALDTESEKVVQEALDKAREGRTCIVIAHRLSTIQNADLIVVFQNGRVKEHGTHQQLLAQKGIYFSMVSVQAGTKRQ
Chain of Cytochrome P450 2C9 (P11712 whole entry): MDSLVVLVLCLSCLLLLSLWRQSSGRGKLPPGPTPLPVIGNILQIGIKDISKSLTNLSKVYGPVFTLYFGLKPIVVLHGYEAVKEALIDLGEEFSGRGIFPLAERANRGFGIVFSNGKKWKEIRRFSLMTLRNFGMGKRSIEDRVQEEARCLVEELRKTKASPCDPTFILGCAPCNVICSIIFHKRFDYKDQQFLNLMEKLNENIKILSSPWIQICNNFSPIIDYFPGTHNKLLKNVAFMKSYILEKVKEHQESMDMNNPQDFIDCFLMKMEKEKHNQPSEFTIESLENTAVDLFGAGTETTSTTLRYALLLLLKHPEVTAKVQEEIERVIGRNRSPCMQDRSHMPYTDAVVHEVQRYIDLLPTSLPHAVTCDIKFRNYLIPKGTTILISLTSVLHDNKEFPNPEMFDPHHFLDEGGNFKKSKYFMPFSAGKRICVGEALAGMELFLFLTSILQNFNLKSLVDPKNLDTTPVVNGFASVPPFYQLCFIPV
Chain of Cytochrome P450 3A4 (P08684 whole entry): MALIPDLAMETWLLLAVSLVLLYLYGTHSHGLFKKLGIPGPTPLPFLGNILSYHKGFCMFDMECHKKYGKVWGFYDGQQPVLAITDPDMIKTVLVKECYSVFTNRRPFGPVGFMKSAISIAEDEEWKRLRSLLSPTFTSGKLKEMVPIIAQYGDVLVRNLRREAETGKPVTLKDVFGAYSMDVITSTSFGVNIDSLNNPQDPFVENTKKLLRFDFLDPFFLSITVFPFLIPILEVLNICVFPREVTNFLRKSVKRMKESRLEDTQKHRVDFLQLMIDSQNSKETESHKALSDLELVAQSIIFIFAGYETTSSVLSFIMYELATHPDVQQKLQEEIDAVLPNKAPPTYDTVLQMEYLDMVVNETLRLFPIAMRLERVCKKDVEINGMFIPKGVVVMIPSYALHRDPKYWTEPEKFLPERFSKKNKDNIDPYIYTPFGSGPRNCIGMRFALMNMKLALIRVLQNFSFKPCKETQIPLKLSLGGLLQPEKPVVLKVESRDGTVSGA
Chain of ADP-ribosylation factor GTPase-activating protein 1 (Q62848 whole entry): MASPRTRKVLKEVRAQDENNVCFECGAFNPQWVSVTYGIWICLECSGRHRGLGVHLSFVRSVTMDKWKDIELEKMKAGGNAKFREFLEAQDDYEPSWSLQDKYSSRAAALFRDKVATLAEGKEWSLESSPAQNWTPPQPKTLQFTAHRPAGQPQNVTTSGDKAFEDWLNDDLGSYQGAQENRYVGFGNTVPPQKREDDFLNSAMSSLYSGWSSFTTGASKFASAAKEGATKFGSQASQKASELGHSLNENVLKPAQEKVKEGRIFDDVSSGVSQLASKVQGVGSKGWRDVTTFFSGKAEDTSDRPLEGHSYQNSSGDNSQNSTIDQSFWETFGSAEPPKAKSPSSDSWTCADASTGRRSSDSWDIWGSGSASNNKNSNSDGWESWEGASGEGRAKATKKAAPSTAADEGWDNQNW
Chain of Low molecular weight phosphotyrosine protein phosphatase (P24666 whole entry): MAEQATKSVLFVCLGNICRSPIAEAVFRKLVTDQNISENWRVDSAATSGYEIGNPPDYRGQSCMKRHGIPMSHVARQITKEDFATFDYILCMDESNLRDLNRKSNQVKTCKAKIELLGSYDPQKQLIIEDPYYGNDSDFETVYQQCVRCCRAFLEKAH
Chain of Nonstructural protein 1 (Q194T2 whole entry): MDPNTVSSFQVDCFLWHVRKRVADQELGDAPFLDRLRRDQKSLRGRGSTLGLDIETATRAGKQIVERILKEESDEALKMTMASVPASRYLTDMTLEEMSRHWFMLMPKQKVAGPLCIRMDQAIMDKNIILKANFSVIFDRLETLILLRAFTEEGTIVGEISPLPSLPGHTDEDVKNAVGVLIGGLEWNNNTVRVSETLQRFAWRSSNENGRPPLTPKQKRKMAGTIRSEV
Chain of Luciferin 4-monooxygenase (P08659 whole entry, the tested form may be a part): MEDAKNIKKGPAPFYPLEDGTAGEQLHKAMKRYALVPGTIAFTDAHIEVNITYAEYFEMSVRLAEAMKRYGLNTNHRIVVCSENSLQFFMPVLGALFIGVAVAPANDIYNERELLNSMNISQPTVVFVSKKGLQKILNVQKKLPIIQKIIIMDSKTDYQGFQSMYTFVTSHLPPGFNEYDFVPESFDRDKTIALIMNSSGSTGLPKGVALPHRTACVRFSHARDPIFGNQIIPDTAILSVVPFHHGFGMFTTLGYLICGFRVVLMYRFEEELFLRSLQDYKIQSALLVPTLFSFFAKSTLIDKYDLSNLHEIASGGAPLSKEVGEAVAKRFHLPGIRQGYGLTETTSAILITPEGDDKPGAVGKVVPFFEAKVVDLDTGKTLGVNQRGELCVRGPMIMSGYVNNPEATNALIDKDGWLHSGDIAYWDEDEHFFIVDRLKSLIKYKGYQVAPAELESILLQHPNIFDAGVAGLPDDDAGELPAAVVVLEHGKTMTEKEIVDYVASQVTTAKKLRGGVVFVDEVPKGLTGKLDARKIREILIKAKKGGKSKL
Chain of Cytochrome P450 2D6 (P10635 whole entry): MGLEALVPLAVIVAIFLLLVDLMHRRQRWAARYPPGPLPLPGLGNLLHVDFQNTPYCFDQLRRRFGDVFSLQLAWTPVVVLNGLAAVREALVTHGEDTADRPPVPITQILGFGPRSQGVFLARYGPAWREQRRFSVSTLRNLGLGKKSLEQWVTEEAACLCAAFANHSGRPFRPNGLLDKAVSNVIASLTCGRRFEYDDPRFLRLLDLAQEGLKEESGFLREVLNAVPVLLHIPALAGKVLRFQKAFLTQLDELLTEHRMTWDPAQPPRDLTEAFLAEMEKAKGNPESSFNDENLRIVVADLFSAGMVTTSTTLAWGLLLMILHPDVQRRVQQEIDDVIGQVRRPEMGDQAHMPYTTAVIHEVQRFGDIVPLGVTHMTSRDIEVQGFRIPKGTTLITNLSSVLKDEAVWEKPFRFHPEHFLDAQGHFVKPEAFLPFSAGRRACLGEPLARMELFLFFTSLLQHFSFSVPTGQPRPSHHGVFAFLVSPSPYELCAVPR

## O=c1[nH]c(S)nc2ccccc12
[1]
  CC50: > 100 µM (active)

## O=C(COc1ccccc1)Nc1sc2c(c1C(=O)NCc1cccnc1)CCCC2
[2]
  IC50: 21.3 µM (inactive)

## O=C(c1ccccc1)N1CCN(c2cc(-c3ccccc3)nc3cc(-c4ccc(F)cc4)nn23)CC1
[3]
  EC50: 5.63 µM (active)
[4]
  EC50: 2.35 µM (active)

## CCCCn1nc2cc(C(=O)NCCCCc3ccccc3)ccc2c1OCC
HEK293 [5]
  IC50: > 89.2 µM (inactive)
HEK293 [6]
  EC50: > 54.7 µM (inactive)
Insulin-degrading enzyme [7]
  EC50: > 54.7 µM (inactive)
Cytochrome P450 2C9
  AC50: 31.6 µM (inconclusive)
Cytochrome P450 3A4
  AC50: 6.31 µM (inconclusive)
Cytochrome P450 2D6
  AC50: 3.98 µM (inconclusive)
Insulin-degrading enzyme [8]
  EC50: 22.8 µM (inactive)

## CCOc1ccc(Nc2cc3n(c(=O)n2)CCc2cc(OC)c(OC)cc2-3)cc1
[9]
  EC50: 12.5 µM (active)
[10]
  EC50: > 112 µM (not active)
[11]
  AC50: 102 µM (active)

## Cc1cccc(C(=O)NCCN2CCOCC2)c1[N+](=O)[O-]
HEK293 [5]
  IC50: > 89.1 µM (inactive)
HEK293 [6]
  EC50: > 54.6 µM (inactive)
Insulin-degrading enzyme [7]
  EC50: > 54.6 µM (inactive)
Insulin-degrading enzyme [8]
  EC50: > 54.6 µM (inactive)

## CCN1CCCC1CNC(=O)c1ccc2c(c1)NC(=O)/C(=C\c1ccc(OC)c(OC)c1)S2 (stereo unspecified)
Nonstructural protein 1
  IC50: 81.9 µM (active)
[12]
  AC50: 3.24 µM (active)
[13]
  AC50: 12.6 µM (active)
[14]
  AC50: 13.8 µM (active)
[15]
  AC50: 36.4 µM (active)

## Cc1cccc(NC(=O)Cn2cnc3c(oc4ccccc43)c2=O)c1C
[16]
  IC50: 28.7 µM (inactive)
[17]
  CC50: > 40 µM (active)

## CCOC(=O)c1ccc(NC(=O)COc2ccccc2CNC2CCCC2)cc1
[18]
  IC50: 12.2 µM (inactive)
